Several values for one entry are separate records, joined by “and”; a condition that tells them apart may be missing. Equal values may be shown once. Read-outs that look alike come from different tables or passages of the source.
Legend:
[1] = test system: HO1-mCherry-hiPSC-derived flat renal organoids; assay: Blind-coded screen, mCherry fluorescence of HMOX1 reporter in flat organoids
Protocol: (§1) H O 1-mCherry-hiPSC renal organoids (both flat and 3D) were incubated in a 4-fold dilution series of each compound for either 24 h or 72 h. Data on reporter expression are shown graphically in Figure 5.
(§2) A four-fold dilution series of each blinded compound (lyophilized, obtained from the Gothenburg authors) was prepared and HO1-mCherry-hiPSC-derived renal organoids (flat and 3D) were incubated in these dilutions for either 24h or 72h (Figure 5). A no-treatment control was included for each compound, time-point and organoid type (flat or 3D). 24h flat organoids were cultured in 4 x wells of a 24-well plate; 72h flat organoids in wells of a 96-well plate and 3D organoids on transwell inserts.
(§3) Fluorescence measurements were taken after 24h or 72h. Each live organoid was imaged either 5 times with 4 replicates (flat organoids, 24h), once with 10 replicates (flat organoids, 72h), once with 3 replicates (3D organoids, 24h) or 3 times with 3 replicates (3D organoids, 72h). Organoids were imaged using a Zeiss Axiovert microscope with Axiovision software. All images used for fluorescence intensity analysis were taken with identical exposures and settings. All images were analysed using ImageJ. The total fluorescence intensity of the image was multiplied by the total area with a signal between 600 (lower threshold) and 4096 (higher threshold), where 0 is completely black and 4096 is completely white. Thus, only signal above a certain threshold is measured in order to discount very dark areas with no cells.
(§4) In graphs, a single star indicates a p value of the null hypothesis being true of less than 0.05, two stars a p value of less than 0.01 and 3 stars a p value of less than 0.001. Calculation of the overall performance of the assay (in the Discussion section) was performed by calculating the Wilson Score Interval method ([Newcombe, 1998]).

[2] = test system: HO1-mCherry-hiPSC-derived 3D renal organoids; assay: Blind-coded screen, mCherry fluorescence of HMOX1 reporter in 3D organoids
Protocol: as §1, §2, §3, §4

[3] = test system: HO1-mCherry-hiPSC-derived flat renal organoids; assay: Verification of reporter response in flat organoids to known nephrotoxicants (fluorescence, qPCR); type: cell-based, human; details: increasing amounts of compound
Protocol: Total RNA was isolated from organoids using the Qiagen RNeasy mini kit. Flat organoids were dissociated and processed as per the kit protocol. 3D organoids were lysed using the lysis buffer provided in the kit and then passed through a needle to fully dissociate before continuing with the kit protocol. RNA was stored at −80 °C until use. cDNA for qPCR was prepared using 2μg RNA and cDNA for RT-PCR was prepared using 1μg of RNA. All cDNA was quality-controlled by PCR using intron-spanning primers for β-actin on cDNA, prepared with or without reverse transcriptase (primers in Table S4). RT-PCRs for OAT1 (SLC22A6) and OCT2 (SLC22A2) were carried out in multiplex reactions with primers for β-actin as loading controls (primers in Table S4). qPCRs on undifferentiated and flat organoids for HMOX1 with HPRT1 as internal control were performed using TaqMan reagents as per published protocols (Applied Biosystems, assay nos. in Table S4). For qPCRs in the blind-coded screen, quality-controlled cDNA was provided by the Edinburgh authors to the Gothenburg authors. […] The reaction was prepared via Beckman NX and measured on Applied Biosystems QuantStudio 7 Real-Time PCR System.Technical triplicates served to calculate CT mean for each gene. The ΔCT between the target gene and the mean CT of the two reference genes was calculated for each biological replicate. […]

[4] = test system: hiPSC-derived renal organoids; type: cell-based, human
Text: We also stained drug-treated organoids for HMOX1 together with LTL and COL IV (Figure S3A), or JAG1 (Figure S3B), to test whether the response is localized to a specific cell type in the organoid. […] The general increase in HMOX1 expression in response to the toxic drugs, rather than specific response in proximal tubular cells, the primary site of toxicity of both drugs, could be due to the availability of the drug to all cell types of the organoid through the media in contrast to what happens in vivo where these drugs filter through the glomeruli then specifically accumulate inside the proximal tubular cells, through apical uptake pathways, where most of their toxic effect is seen.
The culture medium was aspirated, cells washed once in PBS, then fixed in 4% PFA in PBS for 15 minutes at room temperature, followed by three PBS washes of 3 min each. Cells were permeabilised and blocked for 1 hour (2% BSA, 0.3% Triton x100 in PBS). Cells were washed in PBS and incubated with primary antibodies overnight at 4 °C. Cells were washed in PBS (3x, 15 min) and incubated with secondary antibodies for 2 hrs at room temperature. Cells were washed in PBS (3x, 15 minutes) before imaging in PBS in the wells. Images were taken using a Zeiss Axiovert fluorescence microscope. […]

[5] = test system: hiPSC-derived flat renal organoids; assay: RNA-seq of wild-type hiPSC-derived flat renal organoids treated with gentamicin for 24 h; type: cell-based, human
Text: Although some transporters were more strongly expressed in the 3D organoids, the presence of Megalin and Cubulin in the flat organoids, combined with their increased suitability for high-throughput analyses, led us to adopt this form of organoid to identify a potential reporter for toxic insults in renal organoids. hiPSCs were differentiated into flat renal organoids, and their renal identity was verified by confirming expression of common renal markers (as described above and in the Methods section). We treated these flat renal organoids for 24 h with the known nephrotoxicant, gentamicin ([Regec et al., 1986], [1989]; [El Mouedden et al., 2000]), at 1 or 4 mg/mL, leaving some as vehicle-only controls (3 separate organoids per condition). Gentamicin was chosen based on the presence of Megalin and Cubulin in these organoids because they are the main endocytic receptors involved in gentamicin uptake into proximal tubule cells ([Schmitz et al., 2002]) and would be expected to be necessary for a realistic toxic response. The transcriptomes of renal organoids in these three conditions were compared using RNA-seq analyses.
In contrast, treatment with 4 mg/mL gentamicin caused the expression of 2,221 genes to increase and that of 1770 to decrease. Among the transcripts showing increased expression was KIM-1 (log fold-change: 1.67; FDR-corrected p = 0.03), a biomarker commonly associated with renal tubular necrosis (Table S1).
RNA-seq, and trimming, filtering and normalization of raw data, was performed by Edinburgh Genomics. 1 μg of total RNA/sample was used for sequencing library preparation using an Illumina TruSeq stranded mRNA kit. Sequencing was performed using a Novaseq S1 50 Paired-end run to produce 50–64 million read-pairs per sample. Reads were trimmed using Cutadapt and were aligned to the Homo sapiens reference genome (GRCh38; from Ensembl) using STAR. […] Reads were assigned to features of type ‘exon’ in the input annotation grouped by gene_id in the reference genome using Feature Counts. […] Reads were normalised using the weighted trimmed mean of M-values method. […]

[6] = test system: flat and 3D HO1-mCherry-hiPSC-derived organoids; assay: HMOX1 qPCR in the blind-coded screen, flat and 3D organoids, 24h; type: cell-based, human; details: highest concentration 384µM
Protocol: A one-way ANOVA on repeated measures was performed. […]
mCherry insertion without hydrogen peroxide treatment. B) Single mCherry-positive cells were sorted into each well of 96-well plates as shown in the right panel to isolate clonal populations. Negative (wild type) cells are shown in the left panel. C) Diagram of the primers designed for verifying cassette insertion into the hiPSC genome. D) PCR products using primer pair 1 and 4 shown in C) - endogenous […]
Figure S5. HMOX1 expression in flat and 3D HO1-mCherry-hiPSC-derived flat and 3D organoids by qPCR fold-change analysis, Related to Figure 6.
HMOX1 expression fold-change compared to vehicle control in flat (white) and 3D […]

[7] = test system: undifferentiated HO1-mCherry-hiPSCs; details: 0, 125, or 250 μM for 24 h
Protocol: RNA was stored at −80 °C until use. cDNA for qPCR was prepared using 2μg RNA and cDNA for RT-PCR was prepared using 1μg of RNA. […] 12 ng of cDNA was utilized for each qPCR reaction. TaqMan gene expression assays (Applied Biosystems, TaqMan Gene Expression FAST Master Mix) were performed on HMOX1 and house-keeping genes HPRT and RPLP0. The reaction was prepared via Beckman NX and measured on Applied Biosystems QuantStudio 7 Real-Time PCR System.Technical triplicates served to calculate CT mean for each gene. The ΔCT between the target gene and the mean CT of the two reference genes was calculated for each biological replicate. The mean ΔCT of biological triplicates was normalized to untreated sample resulting in 2^ΔΔCT. […] A one-way ANOVA on repeated measures was performed. Significant fold-change was established by Dunnett's multiple comparisons test.

[8] = flat organoids, 24 h and 72 h, 4-fold dilution series
[9] = 3D organoids, 24 h and 72 h, 4-fold dilution series

Nc1ccn(C[C@@H](CO)OCP(=O)(O)O)c(=O)n1 [Cidofovir]
Prediction of toxicity by increase in fluorescence intensity ([1]; Flat 24h): N
Prediction of toxicity by increase in fluorescence intensity ([1]; Flat 72h): Y
Reporter fluorescence response compared to vehicle control ([1]; flat organoids, 24 h): no significant response
Reporter fluorescence response compared to vehicle control ([1]; flat organoids, 72 h): elicited a response at even the lowest concentration tested
Prediction of toxicity by increase in fluorescence intensity ([2]; 3D 24h): Y
Prediction of toxicity by increase in fluorescence intensity ([2]; 3D 72h): N
Reporter fluorescence response compared to vehicle control ([2]; 3D organoids, 24 h): showed a response after 24 h treatment
Reporter fluorescence response compared to vehicle control ([2]; 3D organoids, 72 h): not after 72 h

C[C@@H]1C[C@H]2[C@@H]3CCC4=CC(=O)C=C[C@]4(C)[C@@]3(F)[C@@H](O)C[C@]2(C)[C@@]1(O)C(=O)CO [Dexamethasone]
Prediction of toxicity by increase in fluorescence intensity ([1]; Flat 24h): N
Prediction of toxicity by increase in fluorescence intensity ([1]; Flat 72h): N
Reporter fluorescence response compared to vehicle control [1, 8]: none of the concentrations produced a signal statistically different
Prediction of toxicity by increase in fluorescence intensity ([2]; 3D 24h): N
Prediction of toxicity by increase in fluorescence intensity ([2]; 3D 72h): N
Prediction of toxicity, combination of 24 and 72 h (Boolean OR) ([2]; 3D organoids): did not predict toxicity
Reporter fluorescence response compared to vehicle control [2, 9]: none of the concentrations produced a signal statistically different

CNC(C)C1CCC(N)C(OC2C(N)CC(N)C(OC3OCC(C)(O)C(NC)C3O)C2O)O1 (stereo not drawn) [Gentamicin]
Low concentration to which organoids responded (fluorescence) ([1]; human, 24 h): 2 4 μM
mCherry fluorescence intensity (fold-change relative to vehicle control) [3]: increased in a dose-dependent manner
HMOX1 expression by immunostaining ([4]; human): HMOX1 expression increased
Prediction of toxicity by increase in fluorescence intensity [2]: Y
Tubular structure of treated organoids [2]: maintained their tubular structures
Low concentration to which organoids responded (fluorescence) ([2]; human, 24 h): 6 µM
Log2FC HMOX1 ([5]; 4 mg/mL vs control, 24 h): 6.552 and 6.55
Expression of CLU in RNA-seq ([5]; data not shown): not up-regulated
Expression of NGAL in RNA-seq ([5]; data not shown): downregulated

COc1ccc(C[C@H](N)C(=O)N[C@H]2[C@@H](O)[C@H](n3cnc4c(N(C)C)ncnc43)O[C@@H]2CO)cc1 [Puromycin]
Reporter fluorescence response compared to vehicle control ([1]; human): significant rise in fluorescence after both 24 and 72 h
Reporter fluorescence response compared to vehicle control ([2]; human): significant rise in fluorescence after both 24 and 72 h

N.N.[Cl][Pt][Cl] [Cisplatin]
Reporter fluorescence response compared to vehicle control [1]: significant increase in fluorescence
HMOX1 expression by immunostaining [4]: HMOX1 expression increased
Cell death (no cDNA obtained) [6]: massive cell death
Reporter fluorescence response compared to vehicle control [2]: significant increase in fluorescence
Tubular structure of treated organoids [2]: distinct loss of tubular structure

OO [hydrogen peroxide]
HMOX1 transcripts by qPCR [7]: increase in HMOX1 transcripts
mCherry fluorescence [7]: increased in a dose-dependent manner

CC(C(=O)O)c1cccc(C(=O)c2ccccc2)c1 (stereo not drawn) [Ketoprofen]
Prediction of toxicity by increase in fluorescence intensity ([1]; Flat 24h): Y
Prediction of toxicity by increase in fluorescence intensity ([1]; Flat 72h): Y
Reporter fluorescence response compared to vehicle control [1, 8]: significant response in the flat cultures at the two highest concentrations
Prediction of toxicity by increase in fluorescence intensity ([2]; 3D 24h): N
Prediction of toxicity by increase in fluorescence intensity ([2]; 3D 72h): N
Reporter fluorescence response compared to vehicle control ([2]; 3D organoids, 72 h): only at the highest concentration after 72 h

O=P1(NCCCl)OCCCN1CCCl (stereo not drawn) [Ifosfamide]
Prediction of toxicity by increase in fluorescence intensity ([1]; Flat 24h): Y
Prediction of toxicity by increase in fluorescence intensity ([1]; Flat 72h): Y
Reporter fluorescence response compared to vehicle control [1, 8]: significant fluorescence increase
Prediction of toxicity by increase in fluorescence intensity ([2]; 3D 24h): Y
Prediction of toxicity by increase in fluorescence intensity ([2]; 3D 72h): Y
Reporter fluorescence response compared to vehicle control [2, 9]: significant fluorescence increase

Source: PMC8861638, “Human iPSC-derived renal organoids engineered to report oxidative stress can predict drug-induced toxicity” (iScience, 2022)
